# From article PMC8615111, “Phenolic Thiazoles with Antioxidant and Antiradical Activity. Synthesis, In Vitro Evaluation, Toxicity, Electrochemical Behavior, Quantum Studies and Antimicrobial Screening” (Antioxidants, 2021)
# Where two headings read alike, the source gives them in different places.
# Columns and labels:
# [1] = DPPH˙ radical scavenging by cyclic voltammetry; settings: for Eox (V): 2nd Eox
# Method: The antioxidant properties were evaluated in terms of their activity against some free radicals, and other compounds reported in the literature, relevant for this purpose, such as: • ferric ions (Fe^3+)—used to test the reduction of the antioxidant character of the compounds; • DPPH˙ free radical– used to test the scavenging effect of the compounds on this radical; • hydrogen peroxide (H2O2)—used to test the scavenging effect of the synthesized molecules on this compound; • 2,2,6,6-tetramethylpiperidinyl-1-oxy (TEMPO)—used to test the scavenging effect of the synthesized molecules on this compound.
# The radical scavenging properties of the novel compounds and the other antioxidants were determined using a stock DPPH˙ radical solution prepared in absolute ethanol. The antioxidant samples were mixed with DPPH˙ solution and HClO4 electrolyte and incubated in the dark for 30 min. The remaining redox activity of DPPH was measured by cycling the potential between −0.7 V and 1.2 V, with a scan rate of 0.1 V/s.
# The nitrogen-centered 2-2-diphenyl-1-picrylhydrazyl radical (DPPH˙) based assay is one of the most commonly employed method to evaluate the ability of a compound to scavenge or neutralize free radicals based on the reduction of the radical.
# Taking into account the redox activity of DPPH˙, its diminution by an antioxidant can also be followed by CV, which is expected to show changes in the voltammetric peaks. Figure A5 reports the electrochemical study of initial electrooxidation of DPPH˙ and the novel compounds compared to remaining peaks after their incubation for 30 min. The decrease of all the peaks after mixture incubation indicates the partial consumption of DPPH˙.
# HaCaT cells = assay: Cytotoxicity determination, MTT method; type: cell-based; settings: Homo sapiens, HaCaT cells, MTT, 24 h
# Method: To determine the cytotoxic action of the obtained compounds 5[…], and 8a-b, a normal human keratinocytes cell line was used (HaCaT keratinocytes, CLS-300493, Eppelheim, Germany). HaCaT cells were cultured in Dulbecco's Modified Eagle Media (DMEM) supplemented with 1% L-glutamine, 1% penicillin-streptomycin, and 5% fetal bovine serum. At 80% confluence, the cells were transferred to 96 well plates at a confluence of 12×10^3 cells/well and left to attach for 24 h at 37°C and 5% CO2 in a humidified atmosphere. […] After 24 h, the culture media was replaced with 100 μL of MTT solution at a final concentration of 5 μg/mL/well and left to interact with the cells for 2 h in the incubator. After this, the MTT solution was replaced with 100 μL of isopropanol, left to dissolve the formazan crystals for 5 min, and read at 550 and 630 nm using a BioTek Epoch plate reader (BioTek Instruments, Winooski, VT, USA) and Gen5 software (version 1.09).
# C. albicans ATCC 102310 = assay: Antifungal activity, modified microdilution; type: cell-based; settings: Candida albicans, ATCC102310
# Method: (§1) For evaluating the antimicrobial activity of the compounds, […] aerobic microbial strains were used: S. aureus ATCC 25923, S. pyogenes ATCC 19615, P. aeruginosa ATCC 27853, S. enterica ISM 83/37, S. typhimurium ATCC 14028, E. coli ATCC 8739, E. coli ATCC 25922, and C. albicans ATCC 102310 obtained from Food Biotechnology Laboratory, Life Sciences Institute, University of Agricultural Sciences, and Veterinary Medicine Cluj Napoca, where the experiment was performed. The antimicrobial activity of the compounds was determined using a modified microdilution technique, and the followed protocol was previously reported.
# (§2) The antimicrobial activity of the final compounds, against seven aerobic microbial strains (S. aureus ATCC 25923, S. pyogenes ATCC 19615, P. aeruginosa ATCC 27853, S. enterica ISM 83/37, S. typhimurium ATCC 14028, E. coli ATCC 8739, E. coli ATCC 25922), and a fungal strain (C. albicans ATCC 102310), was determined using a modified microdilution technique.
# (§3) The results of the antimicrobial activity evaluation of the compounds, in comparison to norfloxacin and chloramphenicol used as standard antibiotics and fluconazole used as reference antifungal, are depicted in Table 10.
# S. enterica ISM 83/37 = assay: Antimicrobial activity, modified microdilution; type: cell-based; settings: Salmonella enterica, ISM83/37
# Method: as §1, §2, §3
# S. pyogenes ATCC 19615 = assay: Antimicrobial activity, modified microdilution; type: cell-based; settings: Streptococcus pyogenes, ATCC19615
# Method: as §1, §2, §3
# P. aeruginosa ATCC 27853 = assay: Antimicrobial activity, modified microdilution; type: cell-based; settings: Pseudomonas aeruginosa, ATCC27853
# Method: as §1, §2, §3
# E. coli ATCC 8739 = assay: Antimicrobial activity, modified microdilution; type: cell-based; settings: Escherichia coli, ATCC8739
# Method: as §1, §2, §3
# E. coli ATCC 25922 = assay: Antimicrobial activity, modified microdilution; type: cell-based; settings: Escherichia coli, ATCC25922
# Method: as §1, §2, §3
# [2] = system: S. typhimurium ATCC 14028; assay: Antimicrobial activity, modified microdilution; type: cell-based; settings: Salmonella enterica
# Method: as §1, §2, §3
# S. aureus ATCC 25923 = assay: Antimicrobial activity, modified microdilution; type: cell-based; settings: Staphylococcus aureus, ATCC25923
# Method: as §1, §2, §3
# Cu^2+ chelation assay = type: biochemical
# [3] = ABTS˙^+ radical scavenging assay; type: biochemical; settings: for IC50: ABTS˙^+ scavenging
# Method: The assay was based on the decolorization of green (2,2′-azinobis-(3-ethylbenzothiazoline-6-sulfonic acid) ABTS˙^+ to ABTS, on the principle reported by Re et al. and was carried out according to our previously published research.
# Later, 1950 µL of ABTS˙^+ reagent was added to all cuvettes and they were shaken for well over 10 min in the dark at room temperature. The absorbance of the resulted solutions found in cuvettes was determined spectrophotometrically at λ = 734 nm. The ABTS scavenging activity of the compounds was calculated using the following Equation (1):(1) ABTS scavenging (%)=control absorbance−sample absorbance/control absorbance×100
# [4] = compound alone, 2nd Ered column
SMILES,"Iox (μA) ([1]; compound + DPPH, 30 min)","Eox (V) ([1]; compound + DPPH, 30 min)",Iox (μA) ([1]; compound alone),Eox (V) ([1]; compound alone),"Ered (V) [1, 4]","Ired (μA) ([1]; compound alone, 2nd Ired)",IC50 (HaCaT cells; read-out: IC50),IC50 (HaCaT cells; read-out: IC50 (µg/mL)),MIC (S. enterica ISM 83/37),"Chelation Capacity (%), cupric ions (Cu^2+ chelation assay; 3.36 µg/mL)","Chelation Capacity (%), cupric ions (Cu^2+ chelation assay; 6.72 µg/mL)","Chelation Capacity (%), cupric ions (Cu^2+ chelation assay; 10.08 µg/mL)","Chelation Capacity (%), cupric ions (Cu^2+ chelation assay; 13.44 µg/mL)","Chelation Capacity (%), cupric ions (Cu^2+ chelation assay; 16.80 µg/mL)",% of ABTS˙^+ Scavenged ([3]; 0.5 µg/mL),% of ABTS˙^+ Scavenged ([3]; 0.75 µg/mL),% of ABTS˙^+ Scavenged ([3]; 1 µg/mL),% of ABTS˙^+ Scavenged ([3]; 1.5 µg/mL),% of ABTS˙^+ Scavenged ([3]; 2.5 µg/mL),IC50 [3],also measured
"Cc1csc(N/N=C/c2ccc(O)cc2O)n1.Cl [Compound 5b, (E)-2-(2,4-dihydroxybenzylidene)-1-(4-methylthiazol-2-yl)hydrazin-1-ium chloride]",33.3 μA,0.349 V,31.76 μA,0.357 V,0.11 V,−10.26 μA,176 µM,50.3 µg/mL,> 100 µg/mL,11.58%,15.60%,22.76%,28.99%,34.10%,35.55%,41.10%,48.40%,66.50%,98.09%,1.00 µg/mL,"Ered (V) ([1]; compound + DPPH, 30 min, 2nd Ered column): 0.145 V; Ired (μA) ([1]; compound + DPPH, 30 min, 2nd Ired): −7.56 μA; MIC (C. albicans ATCC 102310; C. albicans ATCC 102310, read-out: MIC): > 100 µg/mL; MIC (S. pyogenes ATCC 19615; S. pyogenes ATCC 19615, read-out: MIC): > 100 µg/mL; MIC (P. aeruginosa ATCC 27853; P. aeruginosa ATCC 27853, read-out: MIC): 31.2 µg/mL; MIC (E. coli ATCC 8739; E. coli ATCC 8739, read-out: MIC): > 100 µg/mL; MIC (E. coli ATCC 25922; E. coli ATCC 25922, read-out: MIC): > 100 µg/mL; MIC ([2]; S. typhimurium ATCC 14028, read-out: MIC): > 100 µg/mL; MIC (S. aureus ATCC 25923; S. aureus ATCC 25923, read-out: MIC): > 100 µg/mL"
"Br.NC(=O)c1cc(-c2csc(N/N=C/c3ccc(O)cc3O)n2)ccc1O [Compound 7b, (E)-1-(4-(3-carbamoyl-4-hydroxyphenyl)thiazol-2-yl)-2-(2,4-dihydroxybenzylidene) hydrazin-1-ium bromide]",9.076 μA,0.359 V,15.65 μA,0.342 V,0.276 V,−2.54 μA,93.9 µM,42.4 µg/mL,> 100 µg/mL,7.23%,11.41%,14.46%,19.40%,22.72%,25.42%,30.15%,36.50%,49.20%,69.53%,1.60 µg/mL,"Ered (V) ([1]; compound + DPPH, 30 min, 1st Ered): 0.291 V; Ired (μA) ([1]; compound + DPPH, 30 min, 1st Ired): −7.43 μA; MIC (C. albicans ATCC 102310): > 100 µg/mL; MIC (S. pyogenes ATCC 19615): > 100 µg/mL; MIC (P. aeruginosa ATCC 27853): 15.6 µg/mL; MIC (E. coli ATCC 8739): > 100 µg/mL; MIC (E. coli ATCC 25922): > 100 µg/mL; MIC [2]: > 100 µg/mL; MIC (S. aureus ATCC 25923): > 100 µg/mL"
